# Data from publication PMC4764975, “Probing the enzyme kinetics, allosteric modulation and activation of α1- and α2-subunit-containing AMP-activated protein kinase (AMPK) heterotrimeric complexes by pharmacological and physiological activators” (Biochemical Journal, 2016).
# Like-named read-outs stand apart in the source and are kept apart here.
# Columns and labels:
# Test in all cases: SPR direct binding (Biacore)
# BAP-tagged AMPK α1β1γ1 = biological target: T1, BAP-tagged AMPK α1β1γ1 (Homo sapiens, UniProt P54619+Q13131+Q9Y478)
# T1 construct: Recombinant full-length AMPK heterotrimeric complexes α1β1γ1, α1β2γ1, α1β2γ3, α2β1γ1, α2β2γ1 and α2β2γ3 were cloned; 6X-His (N); AviTag (BAP); made in house; host or cells: E. coli (co-expressed with BirA)
# T1 sequence (Q13131 whole entry): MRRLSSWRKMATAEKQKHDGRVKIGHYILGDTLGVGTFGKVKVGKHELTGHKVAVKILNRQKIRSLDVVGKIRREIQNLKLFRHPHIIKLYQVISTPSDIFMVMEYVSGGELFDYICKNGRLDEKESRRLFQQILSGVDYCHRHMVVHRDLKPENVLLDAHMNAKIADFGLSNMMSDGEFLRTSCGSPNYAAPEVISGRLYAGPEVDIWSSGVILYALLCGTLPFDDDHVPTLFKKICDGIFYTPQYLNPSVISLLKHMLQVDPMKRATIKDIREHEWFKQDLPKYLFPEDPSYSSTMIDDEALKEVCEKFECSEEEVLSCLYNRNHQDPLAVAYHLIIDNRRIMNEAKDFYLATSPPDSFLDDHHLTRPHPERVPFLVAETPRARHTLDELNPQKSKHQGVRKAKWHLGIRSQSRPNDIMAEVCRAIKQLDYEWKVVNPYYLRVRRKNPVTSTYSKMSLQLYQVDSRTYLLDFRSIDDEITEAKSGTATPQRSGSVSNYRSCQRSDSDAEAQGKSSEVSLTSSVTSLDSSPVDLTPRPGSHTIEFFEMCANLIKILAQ
# T1 sequence (Q9Y478 whole entry): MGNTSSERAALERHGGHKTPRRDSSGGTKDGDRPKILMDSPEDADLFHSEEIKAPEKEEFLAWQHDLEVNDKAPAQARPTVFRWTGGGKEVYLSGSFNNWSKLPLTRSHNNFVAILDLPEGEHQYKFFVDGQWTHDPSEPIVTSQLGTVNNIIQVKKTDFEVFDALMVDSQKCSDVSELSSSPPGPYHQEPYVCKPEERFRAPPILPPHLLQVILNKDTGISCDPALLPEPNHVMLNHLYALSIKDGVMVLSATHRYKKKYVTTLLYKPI
# T1 sequence (P54619 whole entry): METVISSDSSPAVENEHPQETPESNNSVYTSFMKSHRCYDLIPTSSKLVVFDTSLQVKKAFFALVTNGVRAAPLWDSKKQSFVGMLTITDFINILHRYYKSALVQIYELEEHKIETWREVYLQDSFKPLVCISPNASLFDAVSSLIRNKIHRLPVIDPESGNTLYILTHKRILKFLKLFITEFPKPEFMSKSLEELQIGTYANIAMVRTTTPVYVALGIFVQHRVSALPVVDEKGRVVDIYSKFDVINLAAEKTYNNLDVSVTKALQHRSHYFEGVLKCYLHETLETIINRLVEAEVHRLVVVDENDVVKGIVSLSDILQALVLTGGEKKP
# Description: (§1) SPR experiments were performed on a Biacore™ 3000 instrument (GE Healthcare). BAP-tagged AMPK isoform (α1β1γ1, α1β2γ1, α2β2γ1, α2β2γ3) was captured on to a streptavidin sensor chip to levels ranging from 4000 to 6000 RU. […] Binding responses were processed using Scrubber 2 (BioLogic Software Pty Ltd) to zero, x-align, double reference and corrected for excluded volume effect of DMSO in the data. […] The compound was injected at a flow rate of 50 μl/min with total contact time of 120 s and dissociation time of 600 s. Rate parameters (kon, koff) and corresponding dissociation constant(KD=koff/kon) were determined by globally fitting all of the experimental data to a simple 1:1 interaction model using Biaeval software (GE Healthcare). To determine nt binding, 10 concentrations with 2-fold dilutions were tested in duplicate. The highest concentration tested was 2 mM. The compound was injected at a flow rate of 50 μl/min with total contact time of 120 s and dissociation time of 300 s. Equilibrium dissociation constant (KD) was determined using a steady-state affinity algorithm available within Scrubber.
# (§2) We then compared the binding of nts (AMP, ADP and ATP) to α1β1γ1, α1β2γ1, α2β2γ1 and α2β2γ3 isoforms in the presence and absence of Mg^2+ and Stau, using SPR technique. […]
# BAP-tagged AMPK α2β2γ1 = biological target: T2, BAP-tagged AMPK α2β2γ1 (Homo sapiens, UniProt O43741+P54619+P54646)
# T2 construct: Recombinant full-length AMPK heterotrimeric complexes α1β1γ1, α1β2γ1, α1β2γ3, α2β1γ1, α2β2γ1 and α2β2γ3 were cloned into a tricistronic vector system; 6X-His (N); made in house; host or cells: E. coli BL21-CodonPlus (DE3)-RIPL, co-expressed with BirA
# T2 sequence (P54646 whole entry): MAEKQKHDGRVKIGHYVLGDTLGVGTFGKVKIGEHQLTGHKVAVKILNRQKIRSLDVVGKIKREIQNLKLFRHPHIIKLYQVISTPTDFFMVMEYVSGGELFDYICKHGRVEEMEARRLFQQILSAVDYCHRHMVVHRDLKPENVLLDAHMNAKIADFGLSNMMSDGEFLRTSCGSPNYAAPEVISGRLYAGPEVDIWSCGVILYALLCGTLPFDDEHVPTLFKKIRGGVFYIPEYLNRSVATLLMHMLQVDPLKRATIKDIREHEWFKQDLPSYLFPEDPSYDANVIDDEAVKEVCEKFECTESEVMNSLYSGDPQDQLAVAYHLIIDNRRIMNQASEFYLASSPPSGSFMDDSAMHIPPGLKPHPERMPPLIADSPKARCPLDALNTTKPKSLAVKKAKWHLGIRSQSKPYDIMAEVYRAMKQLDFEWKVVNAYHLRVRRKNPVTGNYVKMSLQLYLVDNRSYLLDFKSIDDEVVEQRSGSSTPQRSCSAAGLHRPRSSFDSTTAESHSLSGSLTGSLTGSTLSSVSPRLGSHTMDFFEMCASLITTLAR
# T2 sequence (O43741 whole entry): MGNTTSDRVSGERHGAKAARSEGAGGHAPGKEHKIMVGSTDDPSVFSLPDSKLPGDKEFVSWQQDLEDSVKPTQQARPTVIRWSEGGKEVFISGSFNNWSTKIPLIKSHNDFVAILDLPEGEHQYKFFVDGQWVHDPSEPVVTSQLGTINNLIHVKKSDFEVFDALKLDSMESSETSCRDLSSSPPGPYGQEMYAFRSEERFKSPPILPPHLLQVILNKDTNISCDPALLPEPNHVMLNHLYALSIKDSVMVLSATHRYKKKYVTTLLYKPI
# T2 sequence (P54619 whole entry): as the sequence (P54619 whole entry) above
# Description: as §1, §2
# BAP-tagged AMPK α2β2γ3 = biological target: T3, BAP-tagged AMPK α2β2γ3 (Homo sapiens, UniProt O43741+P54646+Q9UGI9)
# T3 construct: Recombinant full-length AMPK heterotrimeric complexes α1β1γ1, α1β2γ1, α1β2γ3, α2β1γ1, α2β2γ1 and α2β2γ3 were cloned into a tricistronic vector system; 6X-His (N); made in house; host or cells: E. coli BL21-CodonPlus (DE3)-RIPL, co-expressed with BirA
# T3 sequence (P54646 whole entry): as the sequence (P54646 whole entry) above
# T3 sequence (O43741 whole entry): as the sequence (O43741 whole entry) above
# T3 sequence (Q9UGI9 whole entry): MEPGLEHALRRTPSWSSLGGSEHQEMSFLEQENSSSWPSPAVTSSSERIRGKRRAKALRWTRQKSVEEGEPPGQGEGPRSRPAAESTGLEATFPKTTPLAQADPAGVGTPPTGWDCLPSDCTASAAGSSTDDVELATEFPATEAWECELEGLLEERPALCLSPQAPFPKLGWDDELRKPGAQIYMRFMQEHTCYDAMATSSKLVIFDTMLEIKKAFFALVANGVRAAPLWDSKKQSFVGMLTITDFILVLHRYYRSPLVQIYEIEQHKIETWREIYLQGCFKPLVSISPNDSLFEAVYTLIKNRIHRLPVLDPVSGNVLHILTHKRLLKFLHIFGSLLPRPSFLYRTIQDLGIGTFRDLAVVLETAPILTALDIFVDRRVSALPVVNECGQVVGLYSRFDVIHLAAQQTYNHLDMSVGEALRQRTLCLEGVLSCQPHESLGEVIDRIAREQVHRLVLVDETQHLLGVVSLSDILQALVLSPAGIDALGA
# Description: as §1
# (§3) We then compared the binding of nts (AMP, ADP and ATP) to α1β1γ1, α1β2γ1, α2β2γ1 and α2β2γ3 isoforms in the presence and absence of Mg^2+ and Stau, using SPR technique.
# BAP-tagged AMPK α1β2γ1 = biological target: T4, BAP-tagged AMPK α1β2γ1 (Homo sapiens, UniProt O43741+P54619+Q13131)
# T4 construct: Recombinant full-length AMPK heterotrimeric complexes α1β1γ1, α1β2γ1, α1β2γ3, α2β1γ1, α2β2γ1 and α2β2γ3 were cloned into a tricistronic vector system; 6X-His (N); made in house; host or cells: E. coli BL21-CodonPlus (DE3)-RIPL, co-expressed with BirA
# T4 sequence (Q13131 whole entry): as the sequence (Q13131 whole entry) above
# T4 sequence (O43741 whole entry): as the sequence (O43741 whole entry) above
# T4 sequence (P54619 whole entry): as the sequence (P54619 whole entry) above
# Description: as §1, §3
# [1] = presence of Mg2+ and 25 nM Stau, cell spans KD1 and KD2, read-out: KD (single measurable binding affinity)
# [2] = presence of Mg2+, cell spans KD1 and KD2, read-out: KD (single measurable binding affinity)
# [3] = tighter site, absence of Mg2+ and Stau, read-out: KD1
# [4] = weaker site, absence of Mg2+ and Stau, read-out: KD2
compound,measurement,setting,value
Nc1ncnc2c1ncn2[C@@H]1O[C@H](COP(=O)(O)OP(=O)(O)O)[C@@H](O)[C@H]1O [ADP],Kd,BAP-tagged AMPK α1β1γ1; [1],24.4 ± 0.4 µM
same,Kd,BAP-tagged AMPK α1β1γ1; [2],33.3 ± 0.3 µM
same,Kd,BAP-tagged AMPK α1β1γ1; [3],4.75 ± 0.08 µM
same,Kd,BAP-tagged AMPK α1β1γ1; [4],1010 ± 80 µM
same,Kd,BAP-tagged AMPK α2β2γ1; [1],11.9 ± 0.3 µM
same,Kd,BAP-tagged AMPK α2β2γ1; [2],22.8 ± 0.5 µM
same,Kd,BAP-tagged AMPK α2β2γ1; [3],2.47 ± 0.09 µM
same,Kd,BAP-tagged AMPK α2β2γ1; [4],2600 ± 300 µM
same,Kd,BAP-tagged AMPK α2β2γ3; [1],12.5 ± 0.1 µM
same,Kd,BAP-tagged AMPK α2β2γ3; [2],19 ± 0.2 µM
same,Kd,BAP-tagged AMPK α2β2γ3; [3],11.2 ± 0.3 µM
same,Kd,BAP-tagged AMPK α2β2γ3; [4],1500 ± 200 µM
same,Kd,BAP-tagged AMPK α1β2γ1; [1],15 ± 1 µM
same,Kd,BAP-tagged AMPK α1β2γ1; [2],28.2 ± 0.3 µM
same,Kd,BAP-tagged AMPK α1β2γ1; [3],4.2 ± 0.2 µM
same,Kd,BAP-tagged AMPK α1β2γ1; [4],2600 ± 400 µM
